Test results taken from the NIST ThermoML archive (doi:10.1016/j.fluid.2015.07.036).

Details: for mass density: 100 kPa, Liquid, single sinker densimeter

CCCC[n+]1ccc(C)cc1.N#CC(=C=[N-])C#N [1-butyl-4-methylpyridinium tricyanomethanide]
Details	mass density [kg/m3]
263.45 K	1059.1
267.95 K	1056.28
273.54 K	1052.57
278.65 K	1048.92
283.37 K	1045.67
288.63 K	1042.4
293.52 K	1038.75
298.25 K	1035.8
303.03 K	1032.82
308.01 K	1029.21
313.21 K	1025.76
318.36 K	1022.75
323.38 K	1019.48
327.88 K	1016.44
332.98 K	1013.51
337.59 K	1010.37
342.27 K	1007.38
348.16 K	1003.72
353.42 K	1000.42
358.02 K	997.29
363.31 K	993.79

surface tension liquid-gas [mN/m]
Details	Ring tensiometer	wilhelmy plate method
288.6 K	49.8	–
293.53 K	49.54	49.49
298.24 K	–	49.18
298.25 K	49.45	–
303.01 K	–	48.76
303.02 K	48.8	–
307.98 K	48.37	–
308.01 K	–	48.35
313.22 K	48.23	–
313.27 K	–	47.89
318.3 K	48.03	–
318.35 K	–	47.44
323.38 K	–	47.12
323.41 K	47.28	–
327.86 K	47.1	–
327.98 K	–	46.65
332.9 K	–	46.21
332.94 K	46.55	–
337.57 K	46.06	–
337.68 K	–	45.88
344.17 K	–	45.37
344.19 K	45.74	–
348.14 K	45.27	–
348.15 K	–	45.03
353.35 K	44.97	–
353.43 K	–	44.52
358.06 K	44.65	–
358.09 K	–	44.17
363.37 K	44.18	–
363.55 K	–	43.66

CCn1cc[n+](C)c1.N#C[C-](C#N)C#N [1-ethyl-3-methyl-1H-imidazolium tricyanomethanide]
Details	mass density [kg/m3]
262.68 K	1106.12
268.65 K	1101.93
273.46 K	1098.21
278.14 K	1095.15
283.27 K	1091.23
288.08 K	1088.11
293.16 K	1084.64
298.19 K	1081
303.27 K	1077.46
308.21 K	1073.93
313.21 K	1070.64
318.2 K	1067.14
323.32 K	1063.82
327.9 K	1060.39
333.05 K	1057.29
338.17 K	1053.46
342.95 K	1050.5
348.05 K	1047.15
352.71 K	1043.86
358.12 K	1040.23
364.84 K	1035.96

Details	surface tension liquid-gas [mN/m]
283.22 K, wilhelmy plate method	50.62
283.25 K, Ring tensiometer	50.71
288.01 K, wilhelmy plate method	50.33
288.03 K, Ring tensiometer	50.29
293.17 K, Ring tensiometer	49.61
293.19 K, wilhelmy plate method	49.74
298.13 K, Ring tensiometer	49.45
298.15 K, wilhelmy plate method	49.4
303.06 K, Ring tensiometer	48.87
303.07 K, wilhelmy plate method	48.89
308.18 K, Ring tensiometer	48.37
308.19 K, wilhelmy plate method	48.42
313.19 K, wilhelmy plate method	48.06
313.27 K, Ring tensiometer	47.99
318.16 K, wilhelmy plate method	47.48
318.18 K, Ring tensiometer	47.44
323.26 K, Ring tensiometer	46.86
323.3 K, wilhelmy plate method	47.14
327.9 K, wilhelmy plate method	46.7
328.44 K, Ring tensiometer	46.65
333.28 K, Ring tensiometer	46.24
333.4 K, wilhelmy plate method	46.16
338.24 K, wilhelmy plate method	45.83
338.25 K, Ring tensiometer	45.72
343.18 K, Ring tensiometer	45.39
343.21 K, wilhelmy plate method	45.31
347.97 K, Ring tensiometer	44.69
347.98 K, wilhelmy plate method	44.86
352.81 K, Ring tensiometer	44.55
352.89 K, wilhelmy plate method	44.44
358.17 K, Ring tensiometer	44.06
358.44 K, wilhelmy plate method	43.93
365.18 K, Ring tensiometer	43.3
365.23 K, wilhelmy plate method	43.29

CCCC[N+]1(C)CCCC1.N#CC(=C=[N-])C#N [1-butyl-1-methylpyrrolidinium tricyanomethanide]
Details	mass density [kg/m3]
263.25 K	1028.92
268.05 K	1026.15
274.1 K	1022.18
278.48 K	1019.29
283.44 K	1015.85
288.48 K	1012.68
292.96 K	1010.28
298.28 K	1006.87
303.21 K	1003.94
308.06 K	1000.78
313.19 K	997.8
317.91 K	995.05
323.17 K	991.69
328.28 K	988.81
333.1 K	985.27
337.77 K	982.59
343.16 K	979.77
347.27 K	977.15
353.46 K	973.98
358.07 K	970.73
364.38 K	967.59

surface tension liquid-gas [mN/m]
Details	Ring tensiometer	wilhelmy plate method
263.32 K	52.96	–
267.79 K	52.64	–
273.16 K	52.22	–
278.42 K	52.03	–
283.38 K	51.73	51.36
288.45 K	–	50.96
288.46 K	51.49	–
292.95 K	51.08	–
292.96 K	–	50.68
298.26 K	50.33	–
298.36 K	–	50.23
303.17 K	49.82	–
303.2 K	–	50.1
308.03 K	–	49.59
308.05 K	49.88	–
313.16 K	49.27	–
313.2 K	–	48.94
317.89 K	48.85	–
317.94 K	–	48.74
323.16 K	48.36	48.3
328.06 K	–	47.88
328.22 K	48.2	–
333.03 K	–	47.55
333.06 K	47.81	–
337.77 K	–	47.21
337.78 K	47.44	–
343.45 K	–	46.74
343.47 K	47.14	–
347.24 K	46.8	–
347.78 K	–	46.41
353.48 K	46.51	–
353.56 K	–	46.01
358.13 K	46.25	–
358.24 K	–	45.64
364.65 K	45.8	–
364.77 K	–	45.17
